Measured values reported in US20240410879A1, “NEMATODE-SEALED CAPSULE, METHOD FOR PRODUCING NEMATODE-SEALED CAPSULE, AND USE OF NEMATODE-SEALED CAPSULE” (NATIONAL INSTITUTES FOR QUANTUM SCIENCE AND TECHNOLOGY, priority 2021, published 2024).

How the values were obtained:
C. elegans [1] = experiment: Hatching inhibitor (FUdR) treatment of adult nematodes: hatching of laid eggs on culture plate and in capsule; type: in vivo, Caenorhabditis elegans
Protocol: A dose of a chemical agent required to make all eggs laid by a generation treated with the chemical agent unable to hatch varies depending on, for example, the type, the developmental stage or the sex of the nematode, a type of the chemical agent, or a treatment (exposure) time. For example, in a case where an FUdR solution is added to the culture plate and a nematode which is an adult hermaphrodite of C. elegans prior to laying eggs is exposed to the FUdR solution for a day, a sterilization dose at which the hatching rate of the next generation becomes 0% is not less than 0.5 mg/mL. Exposure of the adult nematode prior to laying eggs to the chemical agent of a dose lower than the sterilization dose allows for making adjustment so that only a certain percentage of eggs hatch.
The nematodes were cultured on the plate to which E. coli had been applied, until the nematodes became adult nematodes (before start of egg laying) on the third day after hatching. FUdR solution was added to this nematode culture plate, and the nematodes were cultured for another day. The FUdR solution was prepared by dissolving 5 mg of FUdR powder in 10 mL of sterile ultrapure water and stirring.
Adult nematodes on the fourth day after hatching which had been exposed to a hatching inhibitor for one day were collected together with E. coli from the culture plate with use of the platinum wire picker. Then, the nematodes were dropped in the aqueous sol which was the same as that prepared in Example 1, so that a sterilized adult nematode sol was prepared. Next, a micropipette was used to suck out the nematode sol. The nematode sol was then dropped in a calcium lactate solution which filled a plastic dish, and immersed in the calcium lactate solution for approximately 5 minutes. The hatching inhibitor-treated nematode-encapsulated capsule in which the adult nematodes that had been exposed to the hatching inhibitor and E. coli that would be food were encapsulated. At the end, a sterilized-nematode-encapsulated capsule was taken out from the calcium lactate solution and an outer phase membrane of this capsule was washed with ultrapure water.
An image of a spherical capsule in which approximately 10 adult nematodes on the fourth day after hatching and having undergone a hatching inhibition treatment by exposure to FUdR were encapsulated was captured from above with use of a digital camera attached to a microscope and the spherical capsule was observed, every 24 hours (every day) from immediately after the production of the spherical capsule. […] After one day and also after two days, it was possible to observe a state in which the adult nematodes moved inside the capsule. […]

C. elegans [2] = details: in vivo
Text: Next, the nematodes having been grown in the nematode-encapsulated capsule were taken out, and locomotion of the nematodes was observed. As in Example 4, a hatching inhibitor-treated nematode-encapsulated capsule obtained two days after production of the capsule was transferred to a plate A1 with a tweezer, and the capsule was picked a plurality of times with a sterile toothpick, so that the inside of the capsule was exposed.

C. elegans [3] = experiment: Chemotaxis assay to volatile substance on plate A3, conventional nematode supply method (Comparative Example 2); type: in vivo, Caenorhabditis elegans; details: mean of three assays, FIG. 20
Protocol: Assuming that the total number of nematodes caught in the two left fall-in cavities filled with the test solution was N1 and the total number of nematodes caught in the two right fall-in cavities filled with the control buffer solution was N2, a value obtained according to the following formula was defined as a chemotaxis index (C.I.). Then, the response was evaluated. Chemotaxis index (C. I.)=(N1−N2)/(N1+N2). As Comparative Example, evaluation of response of nematodes was carried out on the basis of a conventionally-known method for supplying nematodes. Used was a plate A3 which was identical to that used in Example 10 and in which two sets of two fall-in cavities were formed on left and right sides in symmetrical positions. A test solution was diluted solutions of diacetyl at two different concentrations as in Example 10. Note that the above dilution was conducted with use of a buffer solution, which served as a control. A nematode liquid containing nematodes having been washed in advance with wash buffer was dropped onto the center of the nematode assay plate, and a liquid component was wiped out with a paper wiper. Then, the nematodes were released on the plate. The plate was covered with a lid and sealed with a paraffin film. […] Thereafter, the number of nematodes caught in the fall-in cavities was counted.

C. elegans [4] = experiment: Chemotaxis assay to volatile substance on nematode trap plate A3, nematodes supplied from nematode-encapsulated capsule (Example 10); type: in vivo, Caenorhabditis elegans; details: capsule supply, mean of two assays, FIG. 19
Protocol: An assay for evaluating response of nematodes to a volatile substance was conducted with use of diacetyl (having a molarity of 11.5 M at 15° C.), which is a kind of volatile substance, and diluted solutions prepared by diluting the diacetyl by two different dilution factors of 10 and 10^5. Note that the assay method was a method using a nematode trap plate. […]
Next, several nematode-encapsulated capsules in which nematode eggs were encapsulated and grown to adult nematodes were each picked with a tip of a micropipette chip, so that an outer phase membrane was broken. […] Thereafter, the number of nematodes caught in the fall-in cavities was counted.
Assuming that the total number of nematodes caught in the two left fall-in cavities filled with the test solution was N1 and the total number of nematodes caught in the two right fall-in cavities filled with the control buffer solution was N2, a value obtained according to the following formula was defined as a chemotaxis index (C.I.). Then, the response was evaluated. […]

[5] = 10-fold diluted solution of diacetyl
[6] = 10^5-fold diluted solution of diacetyl

Row | SMILES | hatching of eggs laid on culture plate to which FUdR was added (C. elegans [1]; FUdR solution 5 mg in 10 mL added to culture plate, adults from third day after hatching cultured another day) | sterilization dose at which the hatching rate of the next generation becomes 0% (C. elegans [1]; FUdR solution added to culture plate, adult hermaphrodite of C. elegans prior to laying eggs exposed for a day) | hatching of eggs laid in capsule by adult nematodes exposed to FUdR (C. elegans [1]; approximately 10 adults on fourth day after hatching, exposed one day on plate, encapsulated, observed up to two days after production) | hatching result with nematodes cultured for one day in culture solution containing FUdR (C. elegans [1]; culture solution containing FUdR instead of culture plate, nematode-encapsulated capsule) | locomotion of adult nematodes escaped from capsule (C. elegans [2]) | Chemotaxis index (C.I.) (C. elegans [3]; [5]) | Chemotaxis index (C.I.) (C. elegans [3]; [6]) | Chemotaxis index (C.I.) (C. elegans [4]; [5]) | Chemotaxis index (C.I.) (C. elegans [4]; [6])
1 | O=c1[nH]c(=O)n([C@H]2C[C@H](O)[C@@H](CO)O2)cc1F [FUdR, 5-Fluoro-2′-deoxyuridine] | the eggs did not hatch | not less than 0.5 mg/mL | did not hatch, and no larvae were observed | a result similar to that obtained by culturing on the culture plate to which the FUdR solution was added could be obtained | No remarkable abnormality in locomotion was observed | – | – | – | –
2 | CC(=O)C(C)=O [diacetyl] | – | – | – | – | – | negative | positive | negative | positive
